Laboratory results from patent US9241930B2, “Compositions and methods for treating viral diseases” (NovaDrug, LLC, priority 2011, dated 2016).

System: mouse bone marrow polychromatic erythrocytes
Settings: mice, single oral gavage

## O=P1(N(CCCl)CCCl)NCCCO1 (centres unmarked) [Cyclophosphamide monohydrate]
  bone marrow cytotoxicity (erythropoiesis): some cytotoxicity
48 hour time-point, p≦0.05
  incidence of micronucleated polychromatic erythrocytes: significant increase
